ChEMBL document CHEMBL5523717, “Pyrrole-containing hybrids as potential anticancer agents: An insight into current developments and structure-activity relationships” (Eur J Med Chem, 2024)
One block for each compound: values may come before it.

Columns and labels:
Mushroom tyrosinase [1] = target: T1, Mushroom tyrosinase (Agaricus bisporus, UniProt O42713+Q00024+C7FF04+C7FF05); assay: Inhibition of mushroom Tyrosinase; assay type: protein assay
Tyrosinase = Tyrosinase (Homo sapiens, UniProt P14679); assay: Inhibition of human tyrosinase
Chain of Tyrosinase (P14679 whole entry): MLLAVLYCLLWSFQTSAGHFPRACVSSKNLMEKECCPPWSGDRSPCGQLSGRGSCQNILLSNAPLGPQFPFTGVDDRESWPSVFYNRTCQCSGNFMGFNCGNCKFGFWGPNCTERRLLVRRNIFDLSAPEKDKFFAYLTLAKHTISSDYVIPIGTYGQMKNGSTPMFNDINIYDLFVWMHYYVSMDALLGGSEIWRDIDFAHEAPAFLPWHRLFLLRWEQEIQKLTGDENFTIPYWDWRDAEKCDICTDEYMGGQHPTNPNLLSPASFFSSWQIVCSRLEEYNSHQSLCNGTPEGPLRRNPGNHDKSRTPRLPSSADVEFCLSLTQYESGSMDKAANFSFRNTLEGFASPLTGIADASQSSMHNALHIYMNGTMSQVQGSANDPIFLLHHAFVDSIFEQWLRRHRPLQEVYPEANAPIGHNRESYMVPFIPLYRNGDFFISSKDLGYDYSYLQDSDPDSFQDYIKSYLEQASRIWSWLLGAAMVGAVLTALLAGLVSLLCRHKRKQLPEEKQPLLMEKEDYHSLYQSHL

HUVEC = assay: Antiproliferative activity against VEGF-stimulated HUVEC assessed as inhibition of cell growth incubated for 3 days by MTT assay; assay type: functional, cell-based; conditions: Homo sapiens, 72 h
MCF-12A = assay: Cytotoxicity against human MCF-12A cells assessed as reduction in cell viability incubated for 24 hrs by MTT assay; assay type: functional, cell-based
MCF7 [2] = assay: Cytotoxicity against human MCF7 cells assessed as reduction in cell growth incubated for 24 hrs by MTT assay; assay type: functional, cell-based; conditions: MCF7, 24 h
A549 [3] = assay: Cytotoxicity against human A549 cells assessed as reduction in cell growth incubated for 24 hrs by MTT assay; assay type: functional, cell-based; conditions: A549, 24 h
HCT-15 = assay: Growth inhibition of human HCT-15 cells incubated for 72 hrs by SRB assay; assay type: functional
[4] = Cytotoxicity against human HFL1 cells assessed as cell growth inhibition incubated for 24 hrs by MTT assay; assay type: toxicity, cell-based
[5] = target: T2, Hepatocyte growth factor receptor (Homo sapiens, UniProt P08581); assay: Inhibition of c-Met (unknown origin) by mobility shift assay
T2 sequence (P08581 whole entry): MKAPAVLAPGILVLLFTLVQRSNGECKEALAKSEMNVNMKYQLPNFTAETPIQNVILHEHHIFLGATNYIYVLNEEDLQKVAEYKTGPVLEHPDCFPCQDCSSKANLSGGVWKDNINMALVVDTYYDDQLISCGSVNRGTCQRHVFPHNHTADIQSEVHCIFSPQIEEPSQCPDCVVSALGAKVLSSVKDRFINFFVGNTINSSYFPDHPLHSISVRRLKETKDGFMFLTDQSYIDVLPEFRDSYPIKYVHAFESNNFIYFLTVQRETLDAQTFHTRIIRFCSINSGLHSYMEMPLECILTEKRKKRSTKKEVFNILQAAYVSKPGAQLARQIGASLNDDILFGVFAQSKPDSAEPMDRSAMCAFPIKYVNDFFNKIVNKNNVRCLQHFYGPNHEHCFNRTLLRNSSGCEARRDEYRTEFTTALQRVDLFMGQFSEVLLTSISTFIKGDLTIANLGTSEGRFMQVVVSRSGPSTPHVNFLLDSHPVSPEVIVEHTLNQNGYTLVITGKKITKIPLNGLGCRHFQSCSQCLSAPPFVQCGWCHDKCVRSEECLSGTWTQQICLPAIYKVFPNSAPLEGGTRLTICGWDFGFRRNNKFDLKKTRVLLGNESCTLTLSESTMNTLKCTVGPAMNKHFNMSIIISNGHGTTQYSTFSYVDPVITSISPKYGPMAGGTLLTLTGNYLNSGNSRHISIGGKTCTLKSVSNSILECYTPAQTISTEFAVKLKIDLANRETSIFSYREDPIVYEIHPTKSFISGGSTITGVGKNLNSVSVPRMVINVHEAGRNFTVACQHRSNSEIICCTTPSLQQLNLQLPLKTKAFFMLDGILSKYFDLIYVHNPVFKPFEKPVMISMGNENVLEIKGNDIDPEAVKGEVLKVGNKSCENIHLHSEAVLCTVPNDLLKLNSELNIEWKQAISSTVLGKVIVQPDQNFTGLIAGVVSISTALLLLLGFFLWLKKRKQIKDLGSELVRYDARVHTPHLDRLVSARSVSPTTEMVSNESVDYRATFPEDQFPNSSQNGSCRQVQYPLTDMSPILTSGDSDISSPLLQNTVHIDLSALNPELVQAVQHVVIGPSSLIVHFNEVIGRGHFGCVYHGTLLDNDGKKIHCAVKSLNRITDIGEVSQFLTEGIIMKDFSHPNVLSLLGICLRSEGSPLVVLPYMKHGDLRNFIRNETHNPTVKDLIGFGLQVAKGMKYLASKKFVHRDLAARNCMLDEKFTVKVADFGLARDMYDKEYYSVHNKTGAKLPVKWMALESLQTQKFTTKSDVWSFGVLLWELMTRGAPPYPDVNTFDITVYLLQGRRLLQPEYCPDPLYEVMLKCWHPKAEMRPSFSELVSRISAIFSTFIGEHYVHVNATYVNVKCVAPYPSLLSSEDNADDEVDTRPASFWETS

MCF7 [6] = assay: Cytotoxicity against human MCF7 cells assessed as reduction in cell growth incubated for 72 hrs by MTT assay; assay type: functional, cell-based; conditions: MCF7, 72 h
HepG2 = assay: Cytotoxicity against human HepG2 cells assessed as reduction in cell growth incubated for 72 hrs by MTT assay; assay type: functional, cell-based; conditions: HepG2, 72 h
A549 [7] = assay: Cytotoxicity against human A549 cells assessed as reduction in cell growth incubated for 72 hrs by MTT assay; assay type: functional, cell-based; conditions: A549, 72 h
[8] = target: Kinesin-like protein KIF11 (Homo sapiens, UniProt P52732); assay: Inhibition of KSP/Eg5 (unknown origin)
Chain of Kinesin-like protein KIF11 (P52732 whole entry): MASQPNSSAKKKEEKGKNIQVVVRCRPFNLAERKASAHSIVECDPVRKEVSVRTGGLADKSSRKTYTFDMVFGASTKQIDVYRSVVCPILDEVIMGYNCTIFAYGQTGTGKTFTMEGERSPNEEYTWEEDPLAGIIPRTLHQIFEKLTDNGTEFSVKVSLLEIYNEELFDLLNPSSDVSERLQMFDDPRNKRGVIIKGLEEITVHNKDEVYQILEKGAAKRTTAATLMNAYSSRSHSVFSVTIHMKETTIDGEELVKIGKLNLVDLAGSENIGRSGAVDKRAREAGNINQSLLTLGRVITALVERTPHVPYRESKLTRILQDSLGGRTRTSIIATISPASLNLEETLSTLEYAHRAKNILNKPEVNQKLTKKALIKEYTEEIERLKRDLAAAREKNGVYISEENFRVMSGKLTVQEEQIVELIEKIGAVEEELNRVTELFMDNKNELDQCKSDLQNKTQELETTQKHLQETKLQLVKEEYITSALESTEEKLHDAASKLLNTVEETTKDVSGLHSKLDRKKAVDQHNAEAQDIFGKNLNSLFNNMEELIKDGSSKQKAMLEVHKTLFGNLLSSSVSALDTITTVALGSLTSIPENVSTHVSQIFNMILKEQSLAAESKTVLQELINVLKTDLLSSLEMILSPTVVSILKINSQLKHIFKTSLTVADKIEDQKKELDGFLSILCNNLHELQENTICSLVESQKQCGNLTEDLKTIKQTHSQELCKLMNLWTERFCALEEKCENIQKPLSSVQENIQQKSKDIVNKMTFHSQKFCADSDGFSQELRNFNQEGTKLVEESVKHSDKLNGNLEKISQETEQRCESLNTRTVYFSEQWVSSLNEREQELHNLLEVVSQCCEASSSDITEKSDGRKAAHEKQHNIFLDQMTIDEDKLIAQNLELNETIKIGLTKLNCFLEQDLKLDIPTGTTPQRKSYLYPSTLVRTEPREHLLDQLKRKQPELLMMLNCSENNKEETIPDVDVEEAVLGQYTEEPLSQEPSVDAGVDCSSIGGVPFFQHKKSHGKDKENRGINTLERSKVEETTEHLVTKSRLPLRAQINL

DNA topoisomerase 1 = DNA topoisomerase 1 (Homo sapiens, UniProt P11387); assay: Inhibition of DNA topoisomerase I (unknown origin)
Chain of DNA topoisomerase 1 (P11387 whole entry): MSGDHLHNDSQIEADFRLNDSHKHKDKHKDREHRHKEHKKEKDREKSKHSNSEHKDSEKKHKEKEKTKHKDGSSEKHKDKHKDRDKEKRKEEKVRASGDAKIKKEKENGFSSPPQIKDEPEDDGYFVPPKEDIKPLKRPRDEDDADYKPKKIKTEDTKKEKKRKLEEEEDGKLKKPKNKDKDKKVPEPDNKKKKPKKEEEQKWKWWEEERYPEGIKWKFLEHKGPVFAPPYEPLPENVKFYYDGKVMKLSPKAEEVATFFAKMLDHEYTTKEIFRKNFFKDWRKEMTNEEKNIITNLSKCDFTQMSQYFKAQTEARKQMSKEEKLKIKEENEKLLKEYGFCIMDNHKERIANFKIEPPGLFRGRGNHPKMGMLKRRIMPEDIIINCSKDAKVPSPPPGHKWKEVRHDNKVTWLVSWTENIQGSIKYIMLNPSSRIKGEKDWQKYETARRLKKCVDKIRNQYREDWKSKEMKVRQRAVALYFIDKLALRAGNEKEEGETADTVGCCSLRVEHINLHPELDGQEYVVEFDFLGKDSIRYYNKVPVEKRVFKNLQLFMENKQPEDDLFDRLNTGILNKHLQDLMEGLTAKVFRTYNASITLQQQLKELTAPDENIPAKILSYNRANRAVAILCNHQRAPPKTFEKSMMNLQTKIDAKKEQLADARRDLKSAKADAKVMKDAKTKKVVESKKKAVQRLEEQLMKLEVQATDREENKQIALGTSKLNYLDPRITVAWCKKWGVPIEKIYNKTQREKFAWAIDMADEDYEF

A549 [9] = assay: Antiproliferative activity against human A549 cells transfected with sh-EZH2 vector assessed as reduction in cell growth incubated for 48 hrs by MTT assay; assay type: functional, cell-based; conditions: A549, 48 h
K562 [10] = assay: Antiproliferative activity against human K562 cells assessed as reduction in cell growth incubated for 48 hrs by MTT assay; assay type: functional, cell-based; conditions: K562, 48 h
A549 [11] = assay: Antiproliferative activity against human A549 cells transfected with sh-empty vector assessed as reduction in cell growth incubated for 48 hrs by MTT assay; assay type: functional, cell-based; conditions: A549, 48 h
U-251 = assay: Anticancer activity against human U-251 cells assessed as reduction in cell growth; assay type: functional, cell-based
A549 [12] = assay: Anticancer activity against human A549 cells assessed as inhibition of cell growth; assay type: functional, cell-based
[13] = target: Lysine-specific histone demethylase 1A (Homo sapiens, UniProt O60341); assay: Inhibition of LSD1 (unknown origin)
[14] = target: Vascular endothelial growth factor receptor 2 (Homo sapiens, UniProt P35968); assay: Inhibition of VEGFR-2 (unknown origin) by ELISA analysis
Chain of Vascular endothelial growth factor receptor 2 (P35968 whole entry): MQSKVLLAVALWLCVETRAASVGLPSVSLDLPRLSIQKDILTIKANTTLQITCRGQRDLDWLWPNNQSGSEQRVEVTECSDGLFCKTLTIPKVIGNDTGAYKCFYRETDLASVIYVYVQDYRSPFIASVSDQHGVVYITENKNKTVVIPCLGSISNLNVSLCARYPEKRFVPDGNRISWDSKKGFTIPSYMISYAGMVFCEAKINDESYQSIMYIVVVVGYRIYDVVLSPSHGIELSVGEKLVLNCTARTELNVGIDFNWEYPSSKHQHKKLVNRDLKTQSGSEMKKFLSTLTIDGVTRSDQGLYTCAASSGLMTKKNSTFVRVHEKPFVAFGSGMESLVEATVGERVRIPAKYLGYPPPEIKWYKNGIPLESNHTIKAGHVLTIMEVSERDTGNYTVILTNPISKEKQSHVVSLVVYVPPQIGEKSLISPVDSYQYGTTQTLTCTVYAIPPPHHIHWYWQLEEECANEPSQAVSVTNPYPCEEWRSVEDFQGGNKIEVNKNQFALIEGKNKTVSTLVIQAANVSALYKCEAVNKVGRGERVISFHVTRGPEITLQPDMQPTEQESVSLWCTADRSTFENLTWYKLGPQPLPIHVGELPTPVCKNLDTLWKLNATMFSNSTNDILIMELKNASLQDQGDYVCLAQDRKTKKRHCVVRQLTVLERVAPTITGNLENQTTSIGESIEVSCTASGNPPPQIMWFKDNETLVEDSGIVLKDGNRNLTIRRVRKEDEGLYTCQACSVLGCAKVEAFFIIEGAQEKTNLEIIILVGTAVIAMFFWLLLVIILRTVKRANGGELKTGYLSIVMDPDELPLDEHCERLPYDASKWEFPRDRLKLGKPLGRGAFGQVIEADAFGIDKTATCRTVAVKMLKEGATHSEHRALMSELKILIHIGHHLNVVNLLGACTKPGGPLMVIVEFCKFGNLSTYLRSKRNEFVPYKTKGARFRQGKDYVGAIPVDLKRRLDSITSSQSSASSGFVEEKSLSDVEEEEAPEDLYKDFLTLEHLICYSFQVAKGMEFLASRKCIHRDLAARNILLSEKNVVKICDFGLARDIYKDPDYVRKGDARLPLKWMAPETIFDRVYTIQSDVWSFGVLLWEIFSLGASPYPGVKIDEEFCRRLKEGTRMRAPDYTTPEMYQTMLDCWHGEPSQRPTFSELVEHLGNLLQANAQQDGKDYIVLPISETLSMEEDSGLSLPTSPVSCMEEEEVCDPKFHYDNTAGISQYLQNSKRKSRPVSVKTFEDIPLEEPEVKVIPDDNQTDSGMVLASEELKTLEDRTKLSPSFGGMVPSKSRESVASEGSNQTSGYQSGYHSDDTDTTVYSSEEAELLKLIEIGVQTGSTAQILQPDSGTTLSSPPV

T47D = assay: Cytotoxicity against human T47D cells assessed as reduction in cell viability by MTT assay; assay type: functional, cell-based
[15] = Cytotoxicity against mouse NIH3T3 cells assessed as reduction in cell viability incubated for 24 hrs by MTT assay; assay type: toxicity, cell-based
HT-29 = assay: Cytotoxicity against human HT-29 cells assessed as reduction in cell growth by MTT assay; assay type: functional, cell-based
A-431 = assay: Cytotoxicity against human A-431 cells assessed as reduction in cell growth by MTT assay; assay type: functional, cell-based
A2780 = assay: Cytotoxicity against human A2780 cells assessed as reduction in cell growth by MTT assay; assay type: functional, cell-based
DU-145 = assay: Cytotoxicity against human DU-145 cells assessed as reduction in cell growth by MTT assay; assay type: functional, cell-based
MCF7 [16] = assay: Cytotoxicity against human MCF7 cells assessed as reduction in cell growth by MTT assay; assay type: functional, cell-based
[17] = target: Poly [ADP-ribose] polymerase 2 (Homo sapiens, UniProt Q9UGN5); assay: Inhibition of PARP-2 (unknown origin)
[18] = target: Poly [ADP-ribose] polymerase 1 (Homo sapiens, UniProt P09874); assay: Inhibition of PARP-1 (unknown origin)
MDA-MB-436 = assay: Cytotoxicity against human MDA-MB-436 cells assessed as reduction in cell viability incubated for 96 hrs by MTT assay; assay type: functional
MCF7 [19] = assay: Cytotoxicity against human MCF7 cells assessed as reduction in cell viability incubated for 96 hrs by MTT assay; assay type: functional
MDA-MB-231 = assay: Cytotoxicity against human MDA-MB-231 cells assessed as reduction in cell viability by MTT assay; assay type: functional, cell-based
SUNE1 = assay: Anticancer activity against human SUNE1 cells assessed as reduction in cell growth; assay type: toxicity, cell-based
CNE-2 = assay: Anticancer activity against human CNE-2 cells assessed as reduction in cell growth; assay type: functional, cell-based
K562 [20] = assay: Antiproliferative activity against human K562 cells assessed as reduction in cell growth incubated for 48 hrs by WST-8 assay; assay type: functional, cell-based; conditions: K562, 48 h
MKN-45 = assay: Antiproliferative activity against human MKN-45 cells assessed as reduction in cell growth incubated for 72 hrs by CCK-8 assay; assay type: functional, cell-based; conditions: MKN-45, 72 h
[21] = target: T2, Hepatocyte growth factor receptor; assay: Inhibition of human c-Met
Mushroom tyrosinase [22] = target: T1, Mushroom tyrosinase; assay: Inhibition of mushroom tyrosinase using L-DOPA as substrate preincubated for 10 mins followed by substrate addition and measured after 15 mins by spectrophotometric method; assay type: protein assay

IC50 (Mushroom tyrosinase [1]): 3.99 µM
SMILES: NC(=S)N/N=C/c1ccc[nH]1

IC50 (Mushroom tyrosinase [1]): 0.07 µM | IC50 (Tyrosinase): 175 µM
SMILES: O=C(N/N=C/c1ccc(O)cc1)c1cc2ccccc2[nH]1

SMILES: Cc1c(OCC(O)CN2CCN(C)CC2)cn2ncnc(Oc3ccc(NC(=O)C4(C(=O)Nc5ccc(F)cc5)CC4)cc3F)c12 (configuration not stated)
IC50 (HUVEC): 5 µM

SMILES: O=C(NNC(=S)Nc1ccc(Br)cc1)c1cc2c([nH]c3ccccc32)c(-c2cccc(O)c2)n1
IC50 (MCF-12A): 30.2 µM | IC50 (MCF7 [2]): 3.59 µM | IC50 (A549 [3]): 3.63 µM

SMILES: CSc1nnc(-c2cc3c([nH]c4ccccc43)c(-c3cccc(O)c3)n2)o1
IC50 (MCF-12A): 38.2 µM | IC50 (MCF7 [2]): 6.41 µM | IC50 (A549 [3]): 4.57 µM

SMILES: COc1cccc2c1c(C(=O)C(=O)Nc1cc[nH]n1)cn2Cc1ccc(F)cc1
IC50 (Mushroom tyrosinase [1]): 372 µM

GI50 (HCT-15): 0.89 µM
SMILES: COc1ccc(OC)c(-c2nc(/C=C3/C(=O)N(Cc4ccccc4)c4ccc(Br)cc43)cc3c2[nH]c2ccccc23)c1
IC50 at 24 h [4]: 49.8 µM

IC50 [5]: 0.79 µM
SMILES: Cc1c(C(=O)Nc2ccc(Oc3ncnc4[nH]ccc34)c(F)c2)nnn1-c1ccc(F)cc1
IC50 (MCF7 [6]): 2.9 µM | IC50 (HepG2): 2.03 µM | IC50 (A549 [7]): 4.79 µM

IC50 [8]: 18.8 µM | IC50 (DNA topoisomerase 1): 28.1 µM
SMILES: Cc1ccc(NC(=S)NNC(=O)c2cc3c([nH]c4ccccc43)c(-c3cccc(O)c3)n2)cc1
IC50 (MCF-12A): 16 µM | IC50 (MCF7 [2]): 6.57 µM | IC50 (A549 [3]): 2.57 µM

IC50 (A549 [9]): 270 µM | IC50 (K562 [10]): 58.7 µM | IC50 (A549 [11]): 72.8 µM
SMILES: Cc1cc(C)c(CNC(=O)c2c(C)cn(Cc3ccc(CC(F)(F)F)cc3)c2C)c(=O)[nH]1

SMILES: COc1cccc2c1c(C(C)=O)cn2Cc1ccc(F)cc1
IC50 (Mushroom tyrosinase [1]): 224 µM

IC50 (U-251): 2.29 µM | IC50 (A549 [12]): 3.49 µM
SMILES: CC(=O)n1cc(C(=O)OC(C)C)c(C#Cc2ccc(Cl)cc2)c1C(=O)OC(C)C

IC50 (Mushroom tyrosinase [1]): 344.83 µM
SMILES: CNC(=S)N/N=C/c1ccc[nH]1

IC50 [13]: 0.0078 µM
SMILES: CCOCc1cccc(NC(=O)c2cc3sccc3n2C)c1CCOc1ccc(OC[C@@H]2CCNC2)cc1

SMILES: CNC(=O)c1ccccc1Sc1ccc2c(/N=N/c3cc(C)[nH]c3C)n[nH]c2c1
IC50 (HUVEC): 44 µM

IC50 [14]: 24.9 µM
SMILES: C=c1[nH]c2ccc(Br)cc2/c1=C/c1cc2c([nH]1)CN(CCN(CC)CC)C2=O

SMILES: Cc1c(C(=O)C(=O)Nc2ccncc2)cc(-c2ccccc2)n1-c1ccccc1
IC50 (T47D): 11.8 µM | IC50 at 24 h [15]: > 100 µM

SMILES: O=C(NCc1ccccc1)C(CNC(=O)C1C(C(=O)O)[C@@H]2CC[C@H]1O2)Cc1ccc[nH]1 (some centres not stated)
IC50 (HT-29): 0.017 µM | IC50 (A-431): 0.017 µM | IC50 (A2780): 0.017 µM | IC50 (DU-145): 0.017 µM | IC50 (MCF7 [16]): 0.017 µM

IC50 [17]: 0.00884 µM | IC50 [18]: 0.014 µM
SMILES: CC(C)NCc1ccc(-c2[nH]c3cccc4c3c2C=NNC4=O)cc1
CC50 (MDA-MB-436): 0.98 µM | CC50 (MCF7 [19]): 22.3 µM

IC50 [13]: 0.451 µM
SMILES: CCN1CCC(Oc2ccc(OCCc3ccccc3NC(=O)c3cc4sccc4n3C)cc2)CC1

SMILES: Cc1c(C(=O)C(=O)Nc2ccncc2)cc(-c2ccccc2)n1-c1ccc(F)cc1
IC50 at 24 h [15]: > 100 µM | IC50 (MDA-MB-231): 11.8 µM

IC50 (Mushroom tyrosinase [1]): 94.23 µM
SMILES: S=C(N/N=C/c1ccc[nH]1)Nc1ccccc1

IC50 [13]: 0.075 µM
SMILES: COCc1cccc(NC(=O)c2cc3sccc3n2C)c1CCOc1ccc(OC2CCNCC2)cc1

IC50 [14]: 1.14 µM
SMILES: O=C(CN1CCCCC1)Nc1cccc(-c2cc3ccccc3[nH]2)c1

SMILES: O=C(N/N=C/c1ccc([N+](=O)[O-])n1Cc1cccc(F)c1)c1cccc(O)c1O
IC50 (SUNE1): 0.08 µM | IC50 (CNE-2): 4.43 µM

IC50 [8]: 32.3 µM | IC50 (DNA topoisomerase 1): 28.3 µM
SMILES: CCNC(=S)NNC(=O)c1cc2c([nH]c3ccccc32)c(-c2cccc(O)c2)n1
IC50 (MCF-12A): 28.4 µM | IC50 (MCF7 [2]): 7.2 µM | IC50 (A549 [3]): 4.56 µM

IC50 [14]: 0.07 µM
SMILES: Cc1cc(NS(=O)(=O)c2ccc(N3C(=O)/C(=C/c4c[nH]c5ccccc45)N=C3c3ccccc3)cc2)no1

IC50 [14]: 1.61 µM
SMILES: Cc1cc(NS(=O)(=O)c2ccc(N3C(=O)/C(=C/c4c[nH]c5ccccc45)N=C3c3ccc(Cl)cc3)cc2)no1

SMILES: Cc1cc(C)c(CNC(=O)c2c(C)n(Cc3ccccc3)c3ccc(OCCN4CCCCC4)cc23)c(=O)[nH]1
IC50 (K562 [20]): 52.6 µM

IC50 (MKN-45): 0.0099 µM | IC50 [21]: 0.0128 µM
SMILES: CNC(=O)c1ccc(-c2ccc3ncc(S(=O)(=O)n4ccc5ccccc54)n3c2)cc1F

IC50 (Mushroom tyrosinase [22]): 0.97 µM
SMILES: C=Cc1ccccc1-c1ccn(C)c1C#N
